Entries after “also recorded” stand apart in the source; their conditions may differ. Where two headings read alike, the source gives them in different places. Values belong to the compound of their own block, whether it stands above or below them.
Key:
[1] = molecular target: purified recombinant human PDE5 (Homo sapiens, UniProt O76074); assay: in vitro PDE5 inhibition assay measuring GMP production from cGMP (HPLC-UV-MS); type: biochemical; conditions: for Fold improved potency (fold change in IC50 compared to icariin): relative to icariin; for fold increase in potency compared to the corresponding unglycosylated analog: 3 vs 6, 5 vs 8
Description: STRENDA guidelines were considered in the description of the following enzyme activity assays. PDE5 inhibition and kinetics assays were carried out according to the method of Kincaid and Manganiello [31] and Dell’Agli et al. 1 nM recombinant human PDE5 (catalytic domain consisting of amino acids 537–875, Abcam, ab125581) was pre-incubated with PDE5 inhibitors (synthesized in-house as described above or purchased from Selleck Chemicals) in 40 mM tris-hydrochloric acid, pH 7.8, containing 10 mM MgCl2. […]. PDE5 inhibitors were added to each reaction using a Hewlett-Packard D300 Digital Dispenser (Tecan). Maximum DMSO concentration was 0.1% of the final reaction volume for all samples. After incubation at 25 °C for 5 minutes to allow interaction between PDE5 and drugs, the reaction was started with the addition of 0.3 μM cGMP (Enzo Life Sciences, Inc.) and incubated at 25 °C for 15 minutes. The final reaction volume was 100 μL. Reactions were stopped with the addition of 100 μL of 0.1 M HCl and neutralized by adding 0.1 M NaOH until the pH was 7. […] The amount of GMP produced was measured by HPLC-UV-MS as described in the general procedures. Reaction mixture components were separated with a ramp gradient of solvent A and B run at a flow rate of 0.5 mL/min as follows: 0–4 minutes 0% B, 4–7 minutes 0–95% B, 7–8 minutes 95% B, 8–11.1 minutes 0% B. GMP was measured using selected reaction monitoring in positive mode for a centroid center mass of 152.
A calibration curve using known concentrations of GMP was generated using the HPLC-UV-MS method described above to quantify the absolute amount of GMP in each reaction (S13 Fig). The linear range was from 5.9 nM to 3 μM. The limit of detection (LOD), defined as the lowest concentration producing a detectable peak above background, was 0.1 nM. The lower limit of quantification (LLOQ), defined as the lowest concentration used to generate a standard curve with r^2 > 0.95, was 5.9 nM. The upper limit of quantification (ULOQ), defined as the highest concentration used to generate a standard curve with r^2 > 0.95, was 3 μM. A GMP calibration curve was generated with each individual run of the HPLC-UV-MS.
To measure the IC50 as a result of treatment with each icariin analog, the in vitro inhibition enzyme assay as described above was performed, and GMP levels were normalized to no-drug controls and multiplied by 100 to obtain the percent PDE5 activity. IC50 mean ± SEM values were determined by nonlinear-regression fitting of the percent PDE5 activity data using the [inhibitor] vs response–variable slope (four parameters) equation in Prism (version 7.0a and version 8). Top value was constrained to 100, all other parameters were unconstrained. To obtain the dose-response curves for visual confirmation of the best-fit line, we executed a nonlinear regression fitting using the log(inhibitor) vs. response—variable slope (four parameters) equation in Prism. […] AICc analysis (built into Prism) was used to confirm the best-fitting inhibition model. […] Inhibition models were also compared via visual inspection of the fit of the calculated curves on the Michaelis-Menten plots.

[2] = mitochondrial viability assay with resazurin; type: cell-based, human; conditions: human, 0.01–10 μM; for viability at 3 days: marked reduction in at least one cell line; for viability at 3 days, 10 μM: four cell lines, even at the highest concentration tested (10 μM)
Description: The human cell lines SH-SY5Y (SY5Y, ATCC CRL-2266), SK-MEL-5 (SKMEL-5, ATCC HTB-70), and NCI-H187 (H187, ATCC CRL-5804) were cultured in RPMI medium supplemented with 10% FBS and no antibiotics. These three cell lines were generously provided by the laboratory of Susan Lindquist via Luke Whitesell (currently at the University of Toronto, Toronto, ON, Canada). BJ-hTERT (described in [27], generously provided by Robert Weinberg, Whitehead Institute, Cambridge MA, USA) was cultured in 4:1 DMEM:M199 medium supplemented with 15% FBS and no antibiotics. All cell lines were grown and assayed at 37 °C, 5% CO2. All cell lines were screened for mycoplasma contamination by PCR (Mycoscope Detection Kit, Fisher Scientific) before use in assays.
For viability assays, cells were plated in black, clear bottom 384-well tissue culture-treated plates (Corning) and incubated overnight in the media described above but supplemented with 50 U/mL penicillin-streptomycin antibiotic (Life Technologies). Then, DMSO (no drug controls) and PDE5 inhibitors (0.01–10 μM; synthesized as described above or purchased from Selleck Chemicals) were added using a Hewlett-Packard D300 Digital Dispenser (Tecan) and incubated for 3 days. Maximum DMSO concentration was normalized to 0.1% of the total well volume for all wells. Resazurin (R & D Systems) was diluted 1:20 into each well and incubated for up to 4 hours. Fluorescence was read in a Tecan plate reader (excitation = 570 nm, emission = 585 nm). Wells treated with PDE5 inhibitors were normalized against control wells treated with DMSO to measure percent mitochondrial viability (100 = no effect on mitochondrial viability).

[3] = system: human PDE5; conditions: PDE5, competitive inhibitors; cited from earlier work
[4] = molecular target: T1, bovine trypsin (Bos taurus, UniProt P00760); assay: PAINS assay: non-specific inhibition of trypsin; type: biochemical; conditions: 1x and 10x the PDE5 IC50 (3 and 7 also 50x, 250x); luteolin 50, 100, 250 μM
T1 construct: purchased Sigma-Aldrich T1426
T1 sequence (P00760 24-246): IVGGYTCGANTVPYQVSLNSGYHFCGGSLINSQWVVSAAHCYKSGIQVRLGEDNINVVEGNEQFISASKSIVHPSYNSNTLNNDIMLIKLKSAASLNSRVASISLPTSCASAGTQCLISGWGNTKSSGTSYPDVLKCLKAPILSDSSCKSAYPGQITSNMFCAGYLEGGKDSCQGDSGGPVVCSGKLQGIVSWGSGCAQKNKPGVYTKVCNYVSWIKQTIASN
Description: In assay buffer (50 mM Tris-HCl, 20 mM CaCl2, pH 8.19 with or without 0.5% igepal), 0.002 mg freshly made trypsin is incubated with drugs for 5 minutes at 25 °C. 1 mM of substrate (Nα-benzoyl-L-arginine 4-nitroanilide hydrochloride, Sigma-Aldrich, B3133) is added to start the reaction. Final reaction volume is 100 μl. Product formation is monitored by increasing absorbance at 410 nm at 25 °C for 30 minutes in kinetic mode using a SpectraMax M5 plate reader (Molecular Devices). All values were measured in duplicate.

[5] = system: PDE6 isoforms; set-up: method as in PMID 16780568, PMID 16123402; conditions: cited from earlier work
[6] = system: BJ-hTERT cells; assay: cellular GMP levels after inhibitor treatment; type: cell-based, human; conditions: 20 μM inhibitor, 1 hour; mean ± SEM; p<0.001
Description: For assaying PDE5 inhibitor effects on GMP levels in a cell line, BJ-hTERT cells were plated in 6-well plates (Corning) in the media described above. When cells were 80% confluent, fresh, pre-warmed media with DMSO (untreated controls) or 20 μM sildenafil, 3, or 7 was added and incubated for 1 hour. Maximum DMSO concentration in all samples was 0.2% of the total well volume. Cells were washed once with cold 0.9% NaCl. 800 μL of 80:20 methanol:water spiked with 500 nM isotopically labeled amino acids as internal standards was added while cells were on dry ice. Cells were detached with a cell scraper. Extracts were vortexed for 10 minutes and centrifuged at maximum speed at 4 °C to remove debris. Extracts were dried down in a vacuum dryer and stored at -80 °C. An additional sample was reserved for visual inspection of cell health by confocal light microscopy and for cell counting with a hemocytometer. Three independent assays were conducted in total, with 1–2 replicates per assay. To analyze GMP levels, samples were reconstituted in 50 μL LC-MS grade water and analyzed by HPLC-UV-MS as described in the general procedures and for enzyme inhibition and kinetics assays. The amino acid standards were analyzed in full scan positive mode with mass windows m/z 50–800. GMP peak areas were normalized to the peak area of the internal standard ^13C4, ^15N-threonine or ^13C6, ^15N3-histidine to account for variations in extraction or resuspension volume. The peak areas were then normalized to the average GMP peak area in undrugged controls and multiplied by 100 to obtain the percent GMP.

[7] = molecular target: T2, partially purified recombinant human PDE6C (Homo sapiens, UniProt P51160); assay: PDE6C inhibition assay (GMP production); type: biochemical
T2 construct: partially purified recombinant full-length human PDE6C; purchased SB Drug Discovery; host or cells: insect cells
T2 sequence (P51160 whole entry): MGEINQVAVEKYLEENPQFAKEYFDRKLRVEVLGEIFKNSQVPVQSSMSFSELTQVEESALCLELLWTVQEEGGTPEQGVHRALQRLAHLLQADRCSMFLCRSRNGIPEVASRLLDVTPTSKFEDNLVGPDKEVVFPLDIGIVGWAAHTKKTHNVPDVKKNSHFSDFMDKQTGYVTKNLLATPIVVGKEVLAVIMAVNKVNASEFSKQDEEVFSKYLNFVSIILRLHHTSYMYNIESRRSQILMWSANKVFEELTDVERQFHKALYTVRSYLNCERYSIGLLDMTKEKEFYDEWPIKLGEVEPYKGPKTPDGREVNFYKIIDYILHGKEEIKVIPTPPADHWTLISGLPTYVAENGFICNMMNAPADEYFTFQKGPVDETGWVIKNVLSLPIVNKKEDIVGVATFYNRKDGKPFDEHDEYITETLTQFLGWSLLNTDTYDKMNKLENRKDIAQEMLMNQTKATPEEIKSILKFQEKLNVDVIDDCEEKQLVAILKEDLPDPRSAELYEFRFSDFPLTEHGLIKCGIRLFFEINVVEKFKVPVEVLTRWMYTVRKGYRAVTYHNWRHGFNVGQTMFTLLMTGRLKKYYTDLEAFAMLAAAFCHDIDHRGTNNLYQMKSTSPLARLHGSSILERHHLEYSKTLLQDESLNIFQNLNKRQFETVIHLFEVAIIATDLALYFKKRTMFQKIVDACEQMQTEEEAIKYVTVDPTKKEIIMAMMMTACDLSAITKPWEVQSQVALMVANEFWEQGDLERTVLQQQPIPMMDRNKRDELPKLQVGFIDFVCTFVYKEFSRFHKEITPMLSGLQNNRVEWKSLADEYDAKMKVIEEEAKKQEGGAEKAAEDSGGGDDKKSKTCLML
Description: PDE6C inhibition was measured using the same method as described for PDE5 with modifications. […] The final reaction volume was 50 μL. […] Reactions were stopped as described above for PDE5 enzyme assays, and GMP was quantified as described above. […] The amount of GMP produced in these samples was subtracted from all samples before normalizing against untreated controls.

[8] = molecular target: recombinant human PDE5 (Homo sapiens, UniProt O76074); assay: in vitro PDE5 kinetics assay (nonlinear regression, AICc model comparison); type: biochemical
Description: guidelines were considered in the description of the following enzyme activity assays. […] For kinetics assays, 0.015, 0.05, and 0.2 μM of compounds 3 and 7 were used. […] Maximum DMSO concentration was 0.1% of the final reaction volume for all samples. […] The final reaction volume was 100 μL. Reactions were stopped with the addition of 100 μL of 0.1 M HCl and neutralized by adding 0.1 M NaOH until the pH was 7. […] Reaction mixture components were separated with a ramp gradient of solvent A and B run at a flow rate of 0.5 mL/min as follows: 0-4 minutes 0% B, 4-7 minutes 0-95% B, 7-8 minutes 95% B, 8-11.1 minutes 0% B. GMP was measured using selected reaction monitoring in positive mode for a centroid center mass of 152. […] Top value was constrained to 100, all other parameters were unconstrained. To obtain the dose-response curves for visual confirmation of the best-fit line, we executed a nonlinear regression fitting using the log(inhibitor) vs. response-variable slope (four parameters) equation in Prism. […] AICc analysis (built into Prism) was used to confirm the best-fitting inhibition model. […] Inhibition models were also compared via visual inspection of the fit of the calculated curves on the Michaelis-Menten plots.

[9] = 1 nM PDE5 catalytic domain, 0.3 μM cGMP, 25 °C, 15 min, mean of at least three replicates ± SEM, read-out: IC50

IC50 [1, 9]: 2100 ± 800 nM
Fold improved potency (fold change in IC50 compared to icariin) [1]: 3 fold
SMILES: COc1ccc(-c2oc3c(CC=C(C)C)c(O[C@@H]4O[C@H](CO)[C@@H](O)[C@H](O)[C@H]4O)cc(O)c3c(=O)c2O)cc1 [Compound 2, Icariside I]
viability at 3 days [2]: ≤ 70%

IC50 [1, 9]: 800 ± 500 nM
fold decrease in potency compared to the corresponding unglycosylated compound 7 ([1]; 4 vs 7): 6 fold
Fold improved potency (fold change in IC50 compared to icariin) [1]: 8 fold
SMILES: COc1ccc(-c2oc3c(CC=C(C)C)c(OC4OC(CO)C(O)C(O)C4O)cc(O)c3c(=O)c2OCCCO)cc1 (stereo not drawn) [Compound 4, 3-O-(3-Hydroxypropyl)-Icariside I]
viability at 3 days [2]: ≤ 70%

IC50 [1]: 1800 ± 800 nM
Fold improved potency (fold change in IC50 compared to icariin) [1]: 3 fold
SMILES: COc1ccc(-c2oc3c(CC=C(C)C)c(O)cc(O)c3c(=O)c2O)cc1 [Compound 9, Icaritin]
inhibition of trypsin activity [4]: statistically significant inhibition of trypsin activity (p<0.05)

fold increase in potency compared to the corresponding unglycosylated analog [1]: 5 fold
specificity for PDE5 over PDE6C [7]: shows specificity for PDE5 over PDE6C
Preferred model ([8]; AICc comparison of competitive vs noncompetitive inhibition): Competitive inhibition
Preferred model ([8]; AICc comparison of competitive vs uncompetitive inhibition): Competitive inhibition
probability that the competitive inhibition model is correct ([8]; AICc, compared to a noncompetitive or uncompetitive model): > 99%
Probability it is correct (competitive inhibition) ([8]; AICc, competitive vs noncompetitive inhibition): 99.97%
Probability it is correct (competitive inhibition) ([8]; AICc, competitive vs uncompetitive inhibition): >99.99%
SMILES: COc1ccc(-c2oc3c(CC=C(C)C)c(OC4OC(CO)C(O)C(O)C4O)cc(O)c3c(=O)c2OCCO)cc1 (stereo not drawn) [Compound 3, 3-O-(2-Hydroxyethyl)-Icariside I]
viability at 3 days, 10 μM [2]: > 70%
cellular GMP concentration, % of the GMP concentration in untreated control cells [6]: 9 ± 0.6%
PDE6C inhibition, statistical significance ([7]; at 50x the PDE5 IC50, vs theoretical uninhibited mean of 100%): do not show any statistically significant PDE6C inhibition
mode of inhibition ([8]; Lineweaver-Burk plot and AICc analysis): competitive inhibitor; also recorded: inhibits PDE5 competitively

fold increase in potency compared to the corresponding unglycosylated analog [1]: 3 fold
Fold improved potency (fold change in IC50 compared to icariin) [1]: 12 fold
SMILES: COc1ccc(-c2oc3c(CC=C(C)C)c(OC4OC(CO)C(O)C(O)C4O)cc(O)c3c(=O)c2OCC(C)O)cc1 (stereo not drawn) [Compound 5, 3-O-(2-Hydroxypropyl)-Icariside I]
viability at 3 days, 10 μM [2]: > 70%

Second part, the compound before the results:

SMILES: COc1ccc(-c2oc3c(CC=C(C)C)c(O)cc(O)c3c(=O)c2OCC(C)O)cc1 (stereo not drawn) [Compound 8, 3-O-(2-Hydroxypropyl)-Icaritin]
IC50 [1, 9]: 1500 ± 600 nM
Fold improved potency (fold change in IC50 compared to icariin) [1]: 4 fold

SMILES: O=c1cc(-c2ccc(O)c(O)c2)oc2cc(O)cc(O)c12 [luteolin, reference compound]
inhibition of trypsin activity [4]: statistically significant inhibition of trypsin activity (p<0.001)

SMILES: CCCc1nc(C)c2c(=O)[nH]c(-c3cc(S(=O)(=O)N4CCN(CC)CC4)ccc3OCC)nn12 [vardenafil]
inhibition of PDE6 isoforms [5]: show inhibition of PDE6 isoforms

— paper PMC6754136 (PLoS ONE, 2019)
